Assay [1] addresses T1, human orexin type 2 receptor (hOX2R) (Homo sapiens, UniProt O43614).
T1 construct: expressed in transfected cells
T1 sequence (O43614 1-444): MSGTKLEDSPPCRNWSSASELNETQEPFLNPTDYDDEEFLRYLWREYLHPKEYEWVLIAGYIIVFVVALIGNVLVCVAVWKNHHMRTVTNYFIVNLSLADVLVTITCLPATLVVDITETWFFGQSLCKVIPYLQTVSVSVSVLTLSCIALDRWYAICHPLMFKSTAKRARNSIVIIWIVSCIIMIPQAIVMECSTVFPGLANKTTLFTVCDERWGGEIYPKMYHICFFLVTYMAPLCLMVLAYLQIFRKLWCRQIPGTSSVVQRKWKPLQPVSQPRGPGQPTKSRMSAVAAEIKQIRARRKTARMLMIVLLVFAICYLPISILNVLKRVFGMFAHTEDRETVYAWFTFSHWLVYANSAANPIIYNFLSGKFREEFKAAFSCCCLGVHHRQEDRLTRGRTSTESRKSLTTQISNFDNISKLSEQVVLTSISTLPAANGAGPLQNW
Kind of assay: Measurement of orexin type 2 receptor agonist activity (FLIPR calcium fluorescence). In kind it is cell-based. The settings on record: for Emax: CHO, read-out: hOx2 Emax (%). The gist of the method: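 Agonism was read as fluorescence in cells stably expressing human OX2R. E. is the response at 10 μM relative to orexin A as full agonist (100%).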

In assay [2] the test system is B6.Cg-Tg(HCRT-MJD)1Stak/J (Atax) mouse model of NT1. As to the kind of experiment: Wake promoting efficacy, piezoelectric sleep/wake monitoring, Atax mice. It is filed as in vivo. The following applies: dosed 5 h after light onset. The source says: (§1) Wake-promoting efficacy of the compounds of the present disclosure may be evaluated in a model (e.g., the B6.Cg-Tg(HCRT-MJD)1Stak/J (Atax) mouse model of NT1 and wild type (WT) colony mates). The model (e.g., mouse model) may be monitored for rapid, non-invasive classification of sleep and wakefulness by unsupervised machine learning on physiologically relevant readouts, such as body movement and breath rate, after dosing of a compound of the present disclosure (e.g., oral dosing).
(§2) Wake-promoting efficacy was evaluated in the B6.Cg-Tg(HCRT-MJD)1Stak/J (Atax) mouse model of NT1 and wild type (WT) colony mates. Mice were monitored in home cages using piezoelectric sensors for rapid, non-invasive classification of sleep and wakefulness by unsupervised machine learning on physiologically relevant readouts, such as body movement and breath rate. Piezoelectric detection is highly correlated with conventional time-intensive electroencephalogram/electromyography measures of sleep/wake states in both WT and NT1 mice. In a counterbalanced design, mice were orally dosed at 5 h after light onset with test articles at 0 (vehicle), 3 and 30 mg/kg.

For assay [3], the system named is wild type (WT) colony mates. As to the kind of experiment: Wake promoting efficacy, piezoelectric sleep/wake monitoring, wild type mice. It is filed as in vivo, mouse. The settings on record: oral dose 30 mg/kg, dosed 5 h after light onset.
Excerpt: as §1, §2

Setting [4] is: CHO cells expressing hOX2R, FLIPR calcium fluorescence, read-out: hOx2 pEC50 (converted).
[5] abbreviates: CHO cells expressing hOX2R, FLIPR calcium fluorescence.

From patent publication US12503475B2 (Centessa Pharmaceuticals (UK) Limited, priority 2020, dated 2025) come the findings set out here.

Where two headings read alike, the source gives them in different places.

With `CCS(=O)(=O)N[C@@H]1[C@H](Cc2cccc(-c3cccc(F)c3)c2F)N(C(=O)[C@H]2CCO2)CC12CC2` [Compound 129, N-((6S,7S)-6-((2,3′-difluoro-[1,1′-biphenyl]-3-yl)methyl)-5-((R)-oxetane-2-carbonyl)-5-azaspiro[2.4]heptan-7-yl)ethanesulfonamide], the EC50 in assay [1] (setting [4]) was 0.0794 to 1 nM. The Emax in assay [1] (setting [5]) was 90 to 100%. In addition, the “Wake % time 1 h post dose (increase from vehicle)” value in assay [2] (oral dose 30 mg/kg) came out at 25.0%; in assay [3], 19.3%.

Turning to `O=C([C@H]1CCO1)N1CC2(CC2)[C@H](NS(=O)(=O)C(F)F)[C@@H]1Cc1cccc(-c2cc(F)cc(F)c2)c1F` [Compound 175], the EC50 in assay [1] (setting [4]) is 0.0794 to 1 nM. Further, the Emax in assay [1] (setting [5]) was in the range of 90 to 100%. The “Wake % time 1 h post dose (increase from vehicle)” value came out at 25.3% in assay [2] (oral dose 3 mg/kg) and 29% in assay [2] (oral dose 30 mg/kg).

In the case of `O=C([C@H]1CCO1)N1CC2(CC2)[C@H](NS(=O)(=O)C(F)F)[C@@H]1Cc1cccc(-c2cccc(F)c2)c1F` [Compound 154, N-((6S,7S)-6-((2,3′-difluoro-[1,1′-biphenyl]-3-yl)methyl)-5-((R)-oxetane-2-carbonyl)-5-azaspiro[2.4]heptan-7-yl)-1,1-difluoromethanesulfonamide], the EC50 in assay [1] (setting [4]) was 0.0794 to 1 nM. Also, the Emax in assay [1] (setting [5]) fell in the range of 90 to 100%. Further, the results for the “Wake % time 1 h post dose (increase from vehicle)” value in assay [2] (oral dose 3 mg/kg) and in assay [2] (oral dose 30 mg/kg) were 24.4% and 24.5%, respectively.

Consider `CS(=O)(=O)N[C@@H]1[C@H](Cc2cccc(-c3ccccc3)c2F)N(C(=O)[C@H]2CCO2)CC12CC2` (single isomer, unassigned) [Example 21], for which the “Wake % time 1 h post dose (increase from vehicle)” value in assay [2] (oral dose 3 mg/kg) turned out to be 17.5%; in assay [2] (oral dose 30 mg/kg) it was 27.9%; in assay [3], 14.4%.

Take `O=C(NCC1(F)CC1)N1CC2(CC2)[C@H](NS(=O)(=O)C(F)F)[C@@H]1Cc1cccc(-c2cc(F)cc(F)c2)c1F` [Compound 235, (6S,7S)-7-((difluoromethyl)sulfonamido)-N-((1-fluorocyclopropyl)methyl)-6-((2,3′,5′-trifluoro-[1,1′-biphenyl]-3-yl)methyl)-5-azaspiro[2.4]heptane-5-carboxamide]: the EC50 in assay [1] (setting [4]) is 1 to 10 nM. In addition, in assay [1] (setting [5]), the Emax lay in the range of 90 to 100%.

Regarding `N#CCS(=O)(=O)N[C@@H]1[C@H](Cc2cccc(-c3ccccc3)c2)N(C(=O)[C@H]2CCO2)CC12CC2` [Compound 73], the EC50 in assay [1] (setting [4]) is 10 to 100 nM. Also, the Emax in assay [1] (setting [5]) lay within 90 to 100%.

`CS(=O)(=O)N[C@@H]1[C@H](Cc2cccc(-c3ccccc3)c2)N(C(=O)[C@H]2C[C@@H](F)C2)CC12CC2` (racemic) [Compound 308, N-(-6-([1,1′-biphenyl]-3-ylmethyl)-5-((1s,3R)-3-fluorocyclobutane-1-carbonyl)-5-azaspiro[2.4]heptan-7-yl)methanesulfonamide]: the EC50 in assay [1] (setting [4]) was 10 to 100 nM. Besides, the Emax in assay [1] (setting [5]) fell in the range of 90 to 100%.

For the compound `CS(=O)(=O)N[C@@H]1[C@H](Cc2cccc(-c3ccccc3)c2F)N(C(=O)NC[C@H]2CCO2)CC12CC2` [Compound 331, (6S,7S)-6-((2-fluoro-[1,1′-biphenyl]-3-yl)methyl)-7-(methylsulfonamido)-N-(((R)-oxetan-2-yl)methyl)-5-azaspiro[2.4]heptane-5-carboxamide], in assay [1] (setting [4]), the EC50 was 1 to 10 nM. In assay [1] (setting [5]), the maximal effect (Emax) was 90 to 100%.

Consider `O=C([C@@H](O)C1CC1)N1CC2(CC2)[C@H](NS(=O)(=O)C(F)F)[C@@H]1Cc1cccc(-c2ccccc2)c1F` [Compound 170, N-((6S 7S)-5-((S)-2-cyclopropyl-2-hydroxyacetyl)-6-((2-fluoro-[1,1′-biphenyl]-3-yl)methyl)-5-azaspiro[2.4]heptan-7-yl)-1,1-difluoromethanesulfonamide], for which, in assay [1] (setting [4]), the EC50 was 1 to 10 nM. In addition, the Emax in assay [1] (setting [5]) was 90 to 100%.

As to `Cn1ccc(S(=O)(=O)N[C@@H]2[C@H](Cc3cccc(-c4ccccc4)c3)N(C(=O)[C@H]3CCO3)CC23CC3)n1` [Compound 72, N-((6S,7S)-6-([1,1′-biphenyl]-3-ylmethyl)-5-((R)-oxetane-2-carbonyl)-5-azaspiro[2.4]heptan-7-yl)-1-methyl-1H-pyrazole-3-sulfonamide], in assay [1] (setting [4]), the EC50 is 1 to 10 nM. The Emax in assay [1] (setting [5]) was in the range of 90 to 100%.

In the case of `O=C([C@H](O)CF)N1CC2(CC2)[C@H](NS(=O)(=O)CF)[C@@H]1Cc1cccc(-c2cc(F)cc(F)c2)c1F` [Compound 391, 1-fluoro-N-((6S,7S)-5-((S)-3-fluoro-2-hydroxypropanoyl)-6-((2,3′,5′-trifluoro-[1,1′-biphenyl]-3-yl)methyl)-5-azaspiro[2.4]heptan-7-yl)methanesulfonamide], in assay [1] (setting [4]), the EC50 is 0.0794 to 1 nM. In addition, the Emax in assay [1] (setting [5]) lay in the range of 90 to 100%.

As for `CS(=O)(=O)N[C@@H]1[C@H](Cc2cccc(-c3ccccc3)c2F)N(C(=O)[C@H]2CCO2)CC12CC2` [Compound 21, N-((6S,7S)-6-((2-fluoro-[1,1′-biphenyl]-3-yl)methyl)-5-((R)-oxetane-2-carbonyl)-5-azaspiro[2.4]heptan-7-yl)methanesulfonamide], the EC50 in assay [1] (setting [4]) was 1 to 10 nM. Also, in assay [1] (setting [5]), the maximal response (Emax) fell in the range of 90 to 100%.

For `CN(C)S(=O)(=O)N[C@@H]1[C@H](Cc2cccc(-c3ccccc3)c2F)N(C(=O)N2CC(F)C2)CC12CC2` [Compound 117, N-((6S,7S)-6-((2-fluoro-[1,1′-biphenyl]-3-yl)methyl)-5-(3-fluoroazetidine-1-carbonyl)-5-azaspiro[2.4]heptan-7-yl)-N,N-dimethylsulfuric diamide], in assay [1] (setting [4]), the EC50 is 0.0794 to 1 nM. The Emax in assay [1] (setting [5]) is 90 to 100%.

Take `CS(=O)(=O)NC1C(Cc2cccc(-c3ccccc3)c2)N(C(=O)C2CC(F)(F)C2)CC12CC2` (racemic) [Compound 12, N-(6-([1,1-biphenyl]-3-ylmethyl)-5-(3,3-difluorocyclobutane-1-carbonyl)-5-azaspiro[2.4]heptan-7-yl)methanesulfonamide]: in assay [1] (setting [4]), the EC50 is 100 to 1000 nM. In addition, in assay [1] (setting [5]), the Emax fell in the range of 80 to 90%.

For the compound `CCNC(=O)N1CC2(CC2)C(NS(=O)(=O)CC)C1Cc1cccc(-c2ccccc2)c1F` (racemic) [Compound 52, N-ethyl-7-(ethylsulfonamido)-6-((2-fluoro-[1,1′-biphenyl]-3-yl)methyl)-5-azaspiro[2.4]heptane-5-carboxamide], in assay [1] (setting [4]), the EC50 is 0.0794 to 1 nM. Moreover, the Emax in assay [1] (setting [5]) lay in the range of 90 to 100%.

On to `C[C@@H](C#N)S(=O)(=O)N[C@@H]1[C@H](Cc2cccc(-c3ccccc3)c2)N(C(=O)[C@H]2CCO2)CC12CC2` [Compound 338, (S)-N-((6S,7S)-6-([1,1′-biphenyl]-3-ylmethyl)-5-((R)-oxetane-2-carbonyl)-5-azaspiro[2.4]heptan-7-yl)-1-cyanoethane-1-sulfonamide], for which, in assay [1] (setting [4]), the EC50 was 10 to 100 nM. In assay [1] (setting [5]), the Emax fell in the range of 90 to 100%.

Turning to `O=C(NCC1(F)CC1)N1CC2(CC2)[C@H](NS(=O)(=O)C(F)F)[C@@H]1Cc1cc(F)cc(-c2cc(F)cc(F)c2)c1F` [Compound 416, (6S,7S)-7-((difluoromethyl)sulfonamido)-N-((1-fluorocyclopropyl)methyl)-6-((2,3′,5,5′-tetrafluoro-[1,1′-biphenyl]-3-yl)methyl)-5-azaspiro[2.4]heptane-5-carboxamide], the EC50 in assay [1] (setting [4]) is 1 to 10 nM. The Emax in assay [1] (setting [5]) fell in the range of 90 to 100%.

As to `CCNC(=O)N1CC2(CC2)[C@H](NS(C)(=O)=O)[C@@H]1Cc1cccc(-c2ccccc2)c1OC` [Compound 54, (6S,7S)—N-ethyl-6-((2-methoxy-[1,1′-biphenyl]-3-yl)methyl)-7-(methylsulfonamido)-5-azaspiro[2.4]heptane-5-carboxamide], in assay [1], the Emax was in the range of 80 to 90%. In assay [1] (hOx2 pEC50, CHO cells expressing hOX2R, FLIPR calcium fluorescence), the EC50 lay within 1 to 10 nM.

For the compound `CS(=O)(=O)N[C@@H]1[C@H](Cc2cccc(-c3ccccc3)c2F)N(C(=O)NCCF)CC12CC2` [Compound 86, (6S,7S)-6-((2-fluoro-[1,1′-biphenyl]-3-yl)methyl)-N-(2-fluoroethyl)-7-(methylsulfonamido)-5-azaspiro[2.4]heptane-5-carboxamide], the EC50 in assay [1] (setting [4]) was 1 to 10 nM. The Emax in assay [1] (setting [5]) fell in the range of 90 to 100%.

Consider `O=C([C@H](O)CF)N1CC2(CC2)[C@H](NS(=O)(=O)C(F)F)[C@@H]1Cc1cc(F)cc(-c2cc(F)cc(F)c2)c1F` [Compound 221, 1,1-difluoro-N-((6S,7S)-5-((S)-3-fluoro-2-hydroxypropanoyl)-6-((2,3′,5,5′-tetrafluoro-[1,1′-biphenyl]-3-yl)methyl)-5-azaspiro[2.4]heptan-7-yl)methanesulfonamide], for which the EC50 in assay [1] (setting [4]) was 1 to 10 nM. The Emax in assay [1] fell in the range of 90 to 100%.
